Experimental data from patent US10179782B2, “Substituted sulfonamide compounds” (Genentech, Inc., priority 2016, dated 2019).

target: T1, human TRPA1 (Homo sapiens, UniProt O75762); assay: TRPA1 FLIPR Tetra calcium influx assay in CHO cells (block of cinnamaldehyde-induced calcium influx); type: cell-based; details: Table 1; CHO cells expressing TRPA1; agonist cinnamaldehyde 75 uM; with vs without substituent at R2/R3; read-out: hTRPA1 CHO Ca2+ AUC EVO (IC50)
T1 construct: expressed in transfected cells; host or cells: CHO cells
T1 sequence (O75762 whole entry): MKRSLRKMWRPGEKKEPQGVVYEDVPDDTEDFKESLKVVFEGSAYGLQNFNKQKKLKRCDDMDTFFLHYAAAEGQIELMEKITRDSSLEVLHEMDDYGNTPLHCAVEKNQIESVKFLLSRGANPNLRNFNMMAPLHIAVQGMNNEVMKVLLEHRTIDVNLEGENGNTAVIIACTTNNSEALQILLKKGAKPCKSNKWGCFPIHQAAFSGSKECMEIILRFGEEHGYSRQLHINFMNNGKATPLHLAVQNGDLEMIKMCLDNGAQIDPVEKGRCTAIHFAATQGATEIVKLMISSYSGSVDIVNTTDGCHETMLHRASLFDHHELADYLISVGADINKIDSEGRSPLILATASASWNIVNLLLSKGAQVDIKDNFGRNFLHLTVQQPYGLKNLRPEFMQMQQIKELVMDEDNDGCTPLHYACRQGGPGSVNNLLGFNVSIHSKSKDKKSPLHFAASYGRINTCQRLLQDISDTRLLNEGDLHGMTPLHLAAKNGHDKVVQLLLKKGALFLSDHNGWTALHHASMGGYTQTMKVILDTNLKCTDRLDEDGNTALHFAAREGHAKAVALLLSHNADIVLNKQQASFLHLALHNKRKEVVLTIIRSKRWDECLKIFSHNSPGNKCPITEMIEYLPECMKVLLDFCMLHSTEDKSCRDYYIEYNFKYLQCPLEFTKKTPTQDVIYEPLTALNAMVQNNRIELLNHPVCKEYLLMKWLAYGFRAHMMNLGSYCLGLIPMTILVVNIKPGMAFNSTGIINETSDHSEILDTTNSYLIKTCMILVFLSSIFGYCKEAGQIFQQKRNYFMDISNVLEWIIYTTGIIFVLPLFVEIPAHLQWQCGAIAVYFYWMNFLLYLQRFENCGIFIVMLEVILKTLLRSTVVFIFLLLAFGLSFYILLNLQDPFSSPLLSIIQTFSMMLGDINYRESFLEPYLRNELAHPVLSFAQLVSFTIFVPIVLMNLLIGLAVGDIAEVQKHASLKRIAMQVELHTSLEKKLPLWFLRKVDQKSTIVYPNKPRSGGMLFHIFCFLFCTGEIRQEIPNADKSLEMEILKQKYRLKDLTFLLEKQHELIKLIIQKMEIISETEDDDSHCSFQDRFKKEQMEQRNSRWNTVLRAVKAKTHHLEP
Experimental: IC50s (effective concentration) of compounds on the human and rat TRPA1 channels were determined using a FLIPR Tetra instrument. CHO cells expressing TRPA1 were plated into 384-well plates, incubated overnight at 37 C, and loaded with BD calcium indicator dye for 1 hr at 37° C. followed by 15 minutes at room temperature. The assay buffer was Hank's Balanced Salt Solution (HBSS) containing 20 mM HEPES (pH readjusted to 7.4) along with 0.02% BSA.
Following dye load and plate cool down, compounds were added to the cells using FLIPR Tetra. Plates were then incubated with compounds for 20 minutes at room temperature prior to adding agonist. Following this incubation, ˜EC80 concentration of cinnamaldehyde (75 uM for human TRPA1 and 45 uM for rat TRPA1) was added to active the channels and block of cinnamaldehyde induced calcium influx was measured.
IC50s were fit with a standard Hill function, keeping the Hill coefficient (n) fixed to 1.5. Fixing the Hill coefficient will generally reduce variability of the IC50 determination. The IC50s were individually examined to make sure the MIN and MAX points were set correctly prior to validation of the results.

Question: For `C[C@H]1[C@H](F)C[C@@H](C(=O)NCc2ccnc(-c3cnc(C(F)(F)F)nc3)c2)N1S(=O)(=O)c1ccc(F)cc1` [drawing 606, (2S,4R,5S)-4-fluoro-1-(4-fluorophenyl)sulfonyl-5-methyl-N-[[2-[2-(trifluoromethyl)pyrimidin-5-yl]-4-pyridyl]methyl]pyrrolidine-2-carboxamide], which IC50 is on record?
Answer: 19.5 nM

same assay, conditions: Table 2; CHO cells expressing TRPA1; agonist cinnamaldehyde 75 uM; 20 min compound incubation; Hill coefficient fixed to 1.5; read-out: hTRPA1 CHO Ca2+ AUC EVO (IC50)

Question: For `O=C(NCc1cc(-c2cnc(C(F)(F)F)nc2)ncn1)[C@@H]1[C@H]2C[C@H]2CN1S(=O)(=O)c1ccc(F)cc1` [Example 65, (1S,2S,5R)-3-(4-fluorophenyl)sulfonyl-N-[[6-[2-(trifluoromethyl)pyrimidin-5-yl]pyrimidin-4-yl]methyl]-3-azabicyclo[3.1.0]hexane-2-carboxamide], which IC50 is on record?
Answer: 64.8 nM

Question: `C[C@H]1[C@H](F)C[C@@H](C(=O)NCc2cn(-c3cnc(C(F)(F)F)s3)nc2Cl)N1S(=O)(=O)c1ccc(F)cc1` [Example 148, (4R,5S)-N-[[3-chloro-1-[2-(trifluoromethyl)thiazol-5-yl]pyrazol-4-yl]methyl]-4-fluoro-1-(4-fluorophenyl)sulfonyl-5-methyl-pyrrolidine-2-carboxamide] was tested. Which IC50 did it give?
Answer: 7.64 nM

Question: `C[C@H]1[C@H](F)C[C@@H](C(=O)NCc2cc(OCC3(C(F)(F)F)CC3)nc(C3CC3)n2)N1S(=O)(=O)c1ccc(F)cc1` [Example 83, (2S,4R,5S)-N-[[2-cyclopropyl-6-[[1-(trifluoromethyl)cyclopropyl]methoxy]pyrimidin-4-yl]methyl]-4-fluoro-1-(4-fluorophenyl)sulfonyl-5-methyl-pyrrolidine-2-carboxamide] was tested. Which IC50 did it give?
Answer: 147 nM

Question: How did the IC50 turn out when `C[C@H]1[C@H](F)C[C@@H](C(=O)NCc2cc(-c3cnc(C(F)(F)F)nc3)cnc2C2CC2)N1S(=O)(=O)c1ccc(F)cc1` [Example 110, (2S,4R,5S)-N-[[2-cyclopropyl-5-[2-(trifluoromethyl)pyrimidin-5-yl]-3-pyridyl]methyl]-4-fluoro-1-(4-fluorophenyl)sulfonyl-5-methyl-pyrrolidine-2-carboxamide] was run?
Answer: 10.6 nM

Question: With `C[C@H]1[C@H](F)C[C@@H](C(=O)NCc2cc(-c3cnc(C(F)(F)F)nc3)ncc2C2CC2)N1S(=O)(=O)c1ccc(F)cc1` [Example 125, (2S,4R,5S)-N-[[5-cyclopropyl-2-[2-(trifluoromethyl)pyrimidin-5-yl]-4-pyridyl]methyl]-4-fluoro-1-(4-fluorophenyl)sulfonyl-5-methyl-pyrrolidine-2-carboxamide] as the molecule, how does the IC50 read?
Answer: 4.9 nM

Question: For `C[C@H]1[C@H](F)C[C@@H](C(=O)NCc2cc(-c3ncc(C(F)(F)F)s3)c(F)cn2)N1S(=O)(=O)c1ccc(F)cc1` [Example 96, (2S,4R,5S)-4-fluoro-1-(4-fluorophenyl)sulfonyl-N-[[5-fluoro-4-[5-(trifluoromethyl)thiazol-2-yl]-2-pyridyl]methyl]-5-methyl-pyrrolidine-2-carboxamide], which IC50 is on record?
Answer: 22.5 nM

Question: For `C[C@H]1[C@H](F)C[C@@H](C(=O)NCc2cc(-c3cnc(C(F)(F)F)nc3)ncc2F)N1S(=O)(=O)c1cc2cc(F)ccc2s1` [Example 99, (2S,4R,5S)-4-fluoro-1-(5-fluorobenzothiophen-2-yl)sulfonyl-N-[[5-fluoro-2-[2-(trifluoromethyl)pyrimidin-5-yl]-4-pyridyl]methyl]-5-methyl-pyrrolidine-2-carboxamide], which IC50 is on record?
Answer: 9.67 nM

Question: Which IC50 does the source give for `C[C@H]1[C@H](F)C[C@@H](C(=O)NCc2cc([C@H]3CC[C@H](C(F)(F)F)CC3)ncc2F)N1S(=O)(=O)c1ccc(F)cc1` [Example 55, (2S,4R,5S)-4-fluoro-1-(4-fluorophenyl)sulfonyl-N-[[5-fluoro-2-[4-(trifluoromethyl)cyclohexyl]-4-pyridyl]methyl]-5-methyl-pyrrolidine-2-carboxamide] here?
Answer: 5.89 nM

Question: How did the IC50 turn out when `O=C(NCc1cc(-c2cnc(C(F)(F)F)nc2)ncc1C(F)F)[C@@H]1[C@H]2C[C@H]2CN1S(=O)(=O)c1ccc(F)cc1` [Example 150, (1R,4S,5S)-N-[[5-(difluoromethyl)-2-[2-(trifluoromethyl)pyrimidin-5-yl]-4-pyridyl]methyl]-3-(4-fluorophenyl)sulfonyl-3-azabicyclo[3.1.0]hexane-4-carboxamide] was run?
Answer: 5.72 nM
